One test concerns the target T1, CXXC5–DVL interaction (Homo sapiens, UniProt O14640).
T1 sequence (O14640 251-340 limits assumed): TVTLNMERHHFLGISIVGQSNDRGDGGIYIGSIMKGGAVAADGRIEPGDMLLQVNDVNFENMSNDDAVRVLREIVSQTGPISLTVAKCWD
Description: In vitro CXXC5–DVL binding assay (FITC-tagged PTD-DBMP on DVL PDZ domain). The note with it: dose–response curve, n = 3. On the procedure:
After the addition of 10 μM FITC-tagged PTD-DBMP to each well, each compound in the chemical library or control (DMSO) was treated to the well at a final concentration of 30 μM. The fluorescence intensity was measured using a Fluorstar Optima microplate reader (BGM Lab Technologies, Ortenberg, Germany). The binding values were calculated as a percent ratio of the fluorescent intensity normalized to the DMSO-treated control.

The test system of another test is C28/I2 cells. Description: CXXC5/β-catenin expression and chondrogenic markers in C28/I2 cells. The test is classed as cell-based, human. On the procedure: Figure 2. The effects of estrogen on CXXC5 expression and the mediation of growth plate senescence. (A) Immunoblotting (upper) and quantitative analyses (mean ± SEM, n = 3) (lower) in C28/I2 cells treated with 100 nM E2 (17β-estradiol) for 0, 1, 3, 6, 24, 48, or 72 h. (B) Immunocytochemical staining (left) and quantitative analyses of the fluorescent intensity (mean ± SEM, n = 3; t test, **P < 0.005 and ***P < 0.0005) (right) in C28/I2 cells treated with 100 nM E2 for 40 h. Scale bars, 100 μm. (C–E) Tibial organ cultures (E15.5) incubated with 100 nM E2 for 6 d. Representative images at 6 d (C, left) and quantitative analyses of the growth changes (mean ± SEM, n = 5; t test, ***P < 0.0005) (C, right). Scale bar, 1 mm. H&E staining (D, left) and quantification of each zone height (mean ± SEM, n = 5; t test, *P < 0.05 and **P < 0.005) (D, right) in the growth plate. Scale bar, 200 μm. IHC analyses of β-catenin and CXXC5 (E). Scale bars, 50 μm. (F) 3-wk-old Cxxc5^+/+ and Cxxc5^−/− mice were treated with E2 cypionate (70 μg/kg) by i.m. injection once a week for 3 wk (n = 3–4). Representative images of H&E staining and IHC analyses for BrdU, β-catenin, and CXXC5 in the growth plates of proximal tibiae are shown. The area within the dashed lines indicates the growth plate zone. Black and white scale bars, 50 μm. Yellow scale bar, 20 μm. RZ, resting zone; PZ, proliferative zone; HZ, hypertrophic zone.
Figure S7. The effects of KY19382 on chondrocyte proliferation and differentiation. (A) ATDC5 cells treated with 0.01 or 0.1 μM concentrations of KY19382 were incubated for 48 h followed by treatment with 50 μM BrdU for 12 h before harvesting. BrdU incorporation was visualized by immunofluorescent staining using a specific BrdU antibody (left). BrdU-positive cells were quantified (mean ± SEM, n = 3; ANOVA, P = 7.8 × 10^−5; Tukey’s post-hoc test, *P < 0.05 and ***P < 0.0005) (right). Scale bar, 100 μm. (B) qRT-PCR analyses of mRNA levels of chondrogenic differentiation markers in ATDC5 cells incubated with 0.1 μM KY19382 for 3 d in three-dimensional alginate beads after transfection with control siRNA or Ctnnb1 siRNA (mean ± SEM, n = 3; t test, *P < 0.05, **P < 0.005, and ***P < 0.0005). (C) qRT-PCR analyses of mRNA levels of chondrogenic differentiation markers in C28/I2 cells incubated with 1 μM KY19382 for 3 d in three-dimensional alginate beads (mean ± SEM, n = 3; t test, *P < 0.05 and ***P < 0.0005). n.s., no significance.
The mouse chondrogenic cell line, ATDC5, was obtained from the RIKEN Cell Bank. The human juvenile costal chondrocyte cell line, C28/I2, was provided by Dr. W U Kim (Catholic University, Korea). HEK293-TOP cells (HEK293 cells containing the chromosomally incorporated TOPFlash gene) were provided by Dr. S Oh (Kuk Min University, Korea). […]

In the case of `CON=C1C(=C2C(=O)Nc3cc(Cl)c(Cl)cc32)Nc2ccccc21` [KY19382, 5,6-dichloroindirubin-3′-methoxime], the concentration for half-maximal inhibition (IC50) (as a rule, the point on the concentration scale where inhibition reaches its midpoint) at CXXC5–DVL interaction is 19 nM. Also, the “mRNA levels of chondrogenic markers” value in the test with C28/I2 cells (1 μM, 3 d, alginate beads) is on record as “up-regulated”.
Consider `C[C@]12CC[C@@H]3c4ccc(O)cc4CC[C@H]3[C@@H]1CC[C@@H]2O` [E2, 17β-estradiol], for which, in the test on C28/I2 cells (100 nM), the “time of maximal CXXC5 level” value amounted to 24 h. In addition, the CXXC5 expression entry in the test with C28/I2 cells (100 nM, 0-72 h) is “induced”. Besides, the β-catenin level entry in the test with C28/I2 cells (100 nM, after 24 h) is listed as “reduced”.

The values above are taken from PMC6458850, “CXXC5 mediates growth plate senescence and is a target for enhancement of longitudinal bone growth” (Life Science Alliance, 2019).
